The text below walks through data of patent US20160376286A1, “Pyrimidin-4-one derivatives and their use in the tratement, amelioration or prevention of a viral disease” (priority 2011, published 2016).

SMILES strings stand for the structures.

One data set deals with PB2 cap binding domain (CBD) of an avian H5N1 influenza virus (Influenza A virus, UniProt Q9Q0V1). Briefly: biochemical.
Sequence of PB2 cap binding domain (CBD) of an avian H5N1 influenza virus (Q9Q0V1 318-483 limits assumed): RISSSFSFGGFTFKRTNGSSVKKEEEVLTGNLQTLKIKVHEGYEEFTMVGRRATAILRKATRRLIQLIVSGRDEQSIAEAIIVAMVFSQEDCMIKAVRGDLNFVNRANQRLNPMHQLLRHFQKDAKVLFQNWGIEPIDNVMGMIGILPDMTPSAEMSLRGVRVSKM
Take `Cc1c(-c2cccc(Cl)c2)sc2nc(N)[nH]c(=O)c12` [SAV-7580]: the “Biacore Binding (RU)” value is recorded as 21.2 89.8 11 8.9 RU. In turn, `Cc1c(-c2cnn(C)c2)sc2nc(N)[nH]c(=O)c12` [SAV-7603] showed a Kd of 4.2 µM.

On to `Nc1nc2sc(-c3ccccc3)c(Br)c2c(=O)[nH]1` [SAV-7631], for which the dissociation constant (Kd) was found to be 0.86 µM. With `Cc1c(-c2ccccc2)sc2nc(NCCN(C)C)[nH]c(=O)c12` [SAV-7583], the “Biacore Binding (RU)” value is recorded as 77.8 4.8 66 RU and the equilibrium dissociation constant (Kd) turned out to be 66 µM.

On to `Cc1c(-c2ccccc2Cl)sc2nc(N)[nH]c(=O)c12` [SAV-7596], for which the “Biacore Binding (RU)” value was 11 29.6 13.6 RU and the Kd was determined as 11 µM. In the case of `Cc1c(-c2cccc(F)c2)sc2nc(N)[nH]c(=O)c12` [SAV-7606], the equilibrium dissociation constant (Kd) turned out to be 6 µM.

Test system in another data set: not given
Experiment: not given
`Cc1c(-c2cnn(C)c2)sc2nc(N)[nH]c(=O)c12` yielded a melting point of 335 to 345 °C. For the compound `CCONC(=O)c1ccc(-c2cccc(CN(C)CCCc3ccccc3)c2)cn1.Cl` (hydrate or solvate), the melting point was 50 to 55 °C.

The compound `O=C(NO)c1cc(NS(=O)(=O)Cc2ccccc2)ccn1` yielded a melting point of 187 to 192 °C.
